According to article doi:10.1101/2021.06.06.447270v1 (biorxiv, 2021):

Target: hCD36ecto (CD36ecto; human CD36 ectodomain) (Homo sapiens, UniProt P16671)
Assay: isothermal titration calorimetry
Type: binding

Chain of hCD36ecto (CD36ecto; human CD36 ectodomain) (P16671 30-439 limits assumed): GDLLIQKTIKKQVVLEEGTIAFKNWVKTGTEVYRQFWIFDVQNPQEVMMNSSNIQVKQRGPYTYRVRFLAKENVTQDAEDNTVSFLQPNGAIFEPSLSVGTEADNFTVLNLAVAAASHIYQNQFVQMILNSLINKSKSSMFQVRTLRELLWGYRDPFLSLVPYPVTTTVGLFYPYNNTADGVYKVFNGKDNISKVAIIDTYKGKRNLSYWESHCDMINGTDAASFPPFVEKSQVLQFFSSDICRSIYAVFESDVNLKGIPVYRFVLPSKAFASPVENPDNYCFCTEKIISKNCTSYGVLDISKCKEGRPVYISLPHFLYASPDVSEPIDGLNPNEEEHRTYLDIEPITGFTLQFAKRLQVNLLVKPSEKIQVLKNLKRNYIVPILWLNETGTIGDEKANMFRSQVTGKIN

Kd: 1260 ± 240 nM
Structure (SMILES): C=CC1=C(C)C2=Cc3c(C=C)c(C)c4[n]3[Fe]([Cl])[n]3c(c(C)c(CCC(=O)O)c3=CC3=NC(=C4)C(C)=C3CCC(=O)O)=CC1=N2 [hemin]
